From US20230295096A1, “PYRAZOLE CARBOXAMIDE COMPOUNDS FOR TREATMENT OF HBV” (ASSEMBLY BIOSCIENCES, INC., priority 2020, published 2023)

Test system: HBV
Experiment: Viral load production from HepAD38 cells, qPCR of the HBV core sequence in supernatant
Type: cell-based
Conditions: Hepatitis B virus, HePAD38, 120 h, HepAD38 cells, 5 days, HBV DNA in supernatant by qPCR; Table 1 ranges; read-out: Activity (viral load lowering EC50)
Summary of the method: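 EC50 and CC50 come from four-parameter logistic fits of supernatant HBV core DNA (TaqMan qPCR, DNA standards, compared with DMSO wells) and of CellTiter-Glo luminescence.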

SMILES | EC50 [µM]
Cn1cc(C2(O)CC3CC(c4nn(C)c(N)c4C(=O)Nc4ccc(F)c(Cl)c4)CC3C2)c(C(F)(F)F)n1 (centres unmarked) [Example 220] | < 0.01
Cn1nc(C2CC3CC(O)(c4c(Cl)c(N)nn4C)CC3C2)c(C(=O)Nc2ccc(F)c(Cl)c2)c1N (centres unmarked) [Example 221] | < 0.01
Cn1nc(C2CC3CC(O)(c4c[nH]nc4C(F)(F)F)CC3C2)c(C(=O)Nc2ccc(F)c(C#N)c2)c1N (centres unmarked) [Example 222] | < 0.01
Cn1nc(C2CC3CC(O)(c4cc(C(F)(F)F)n[nH]4)CC3C2)c(C(=O)Nc2ccc(F)c(Cl)c2)c1N (centres unmarked) [Example 223] | < 0.01
Cn1nc(C2CC3CC(O)(c4[nH]nc(C(F)(F)F)c4Br)CC3C2)c(C(=O)Nc2ccc(F)c(Cl)c2)c1N (centres unmarked) [Example 224] | 0.01 to 0.05
COC(=O)CCC(=O)OCn1cc(C2(O)CC3CC(c4nn(C)c(N)c4C(=O)Nc4ccc(F)c(Cl)c4)CC3C2)c(C(F)(F)F)n1 (centres unmarked) [Example 226] | < 0.01
COCCOCCOCCOCCOCCOCCOC(=O)OCn1cc(C2(O)CC3CC(c4nn(C)c(N)c4C(=O)Nc4ccc(F)c(Cl)c4)CC3C2)c(C(F)(F)F)n1 (centres unmarked) [Example 228] | < 0.01
COCCOCCOCCOCCOCCOCCOCCOC(=O)OCn1cc(C2(O)CC3CC(c4nn(C)c(N)c4C(=O)Nc4ccc(F)c(Cl)c4)CC3C2)c(C(F)(F)F)n1 (centres unmarked) [Example 229] | < 0.01
Cn1nc(C2CC3CC(O)(c4cn(COC(=O)CCC(=O)OCc5ccccc5)nc4C(F)(F)F)CC3C2)c(C(=O)Nc2ccc(F)c(Cl)c2)c1N (centres unmarked) [Example 230] | < 0.01
Cn1nc(C2CC3CC(Oc4ncccn4)CC3C2)c(C(=O)Nc2ccc(F)c(Cl)c2)c1N (centres unmarked) [Example 231] | 0.01 to 0.05

Same assay, conditions: Hepatitis B virus, HePAD38, 120 h, read-out: Activity (viral load lowering EC50), HepAD38 cells, 5 days, HBV DNA in supernatant by qPCR; Table 1 ranges

SMILES | EC50 [µM]
Cn1nc(C2CC3CC(O)(Cc4ccc(S(C)(=O)=O)cn4)CC3C2)c(C(=O)Nc2ccc(F)c(Cl)c2)c1N (centres unmarked) [Exmaple 165] | < 0.01
